# Earlier results in US11089780B2, “Pendimethanlin microcapsules with a shell made of tetramethylxylylene diisocyanate and a polyamine with at least three amine groups” (BASF SE, priority 2015, dated 2021).
# Conditions: at 25° C.
structure (smiles),measurement,value
"CCC(CC)Nc1c([N+](=O)[O-])cc(C)c(C)c1[N+](=O)[O-] [Pendimethalin, 3,4-dimethyl-2,6-dinitro-N-pentan-3-yl-aniline]",Vapor pressure,about 2 mPa
